Test results from patent US20240115496A1, “A COMPOUND DRY POWDER INHALANT AND USE THEREOF” (TIANJIN UNIVERSITY OF TRADITIONAL CHINESE MEDICINE, priority 2021, published 2024).

Key:
[1] = Particle size distribution test, laser particle size analyzer, dry dispersion; assay type: physicochemical
Method: The particle size distribution of DPI dry powder was measured by dry dispersion method using laser particle size analyzer, and Dv10, Dv50, Dv90, VMD (Volume median diameter) and SMD (Sauter mean diameter) were determined, respectively.

[2] = In vivo pharmacokinetics, plasma (UPLC-MS/MS); parameters: species or system rat; conditions: for half-life: read-out: HLz (biological half-life) (converted); for MRT last: read-out: MRTlast (mean retention time); for concentration at 2 min / concentration at 10 min / concentration at 15 min / concentration at 30 min / concentration at 60 min / concentration at 120 min / concentration at 240 min / concentration at 360 min / concentration at 4 min: read-out: Blood concentration of BA; for concentration at 4 min: Sprague-Dawley (SD)
Method: (§1) SPF-grade healthy SD male rats, body weight 180-220 g, purchased from SPF (Beijing) Biotechnology Co., Ltd (Certificate No. SCXK (Beijing) 2019-0010), were conventionally reared under (23±2)° C., humidity: (50±10)%. This study was conducted with the approval of the Animal Experiment Center of Tianjin University of Traditional Chinese Medicine.
(§2) 108 SPF-grade SD male rats were randomly divided into tail intravenous injection group and pulmonary administration group, with 9 time points of 2 min, 4 min, 10 min, 15 min, 30 min, 1 h, 2 h, 4 h and 6 h per group, 6 rats per time point per group. The rats were fasted for 12 h before the experiment, with water provided. The rats were weighed (to calculate the dose) and numbered, and both groups were intraperitoneally injected with 10% chloral hydrate at a dose of 2 mL/kg. Group 1 was administered BA/AH-DPI saline solution by tail intravenous injection at a dose of 9 mg/kg. Group 2 was administered 3 mg of BA/AH-DPI fine powder at the same dose by spray administration with a DP-4 tracheal insufflator (1.5 mL of air was pushed each time, 3-4 times consecutively). Blood was sampled from the abdominal aorta of the rats in both groups at the above time points after drug administration, and the rats were executed. The obtained whole blood was placed in a centrifuge tube with sodium heparin, centrifuged at 4000 r/min for 10 min, and the upper layer of plasma was separated and stored a refrigerator at −80° C. After blood collection, the thoracic cavity was quickly opened and the lungs of the rats were isolated. The small amount of floating blood on the surface of the lung tissue was washed with saline in an ice bath. The surface of the lung tissue was blotted with filter paper. The trachea was cut off, wrapped in tin foil and placed in a 10 mL centrifuge tube. The lung was weighed precisely, and stored in a refrigerator at −80° C.
(§3) 100 μL of the plasma sample or lung tissue supernatant was precisely absorbed, and 200 μL (100 ng/mL) of methanol solution containing the internal standard was added. The mixture was vortexed and mixed for 3 min, and centrifuged at 12000 r/min for 10 min to obtain the supernatant as the finished sample. The contents of BA and AH were determined by UPLC-MS/MS method.
(§4) Electrospray ion source (ESI source); scan mode: positive (ESI+) detection; detection mode: multi-reactive ion monitoring (MRM). Electrospray voltage: 4 kV; atomization gas: N2; spray gas flow rate (Gas1): 15 psi; ion source temperature: 300° C.
(§5) Meaning of pharmacokinetic parameters: HLz was the biological half-life, i.e., the time required for the amount or blood concentration of the drug in the body to decrease by half; Tmax was the time to peak, i.e., the time required to reach the peak concentration of the drug after administration. Cmax was the peak drug concentration, i.e., the highest blood concentration that occurred after administration of the drug. AUC was the area enclosed by the blood drug concentration curve against the time axis. Vz/F was the apparent volume of distribution, the ratio constant of the amount of drug in the body to the blood concentration when the drug reached dynamic equilibrium in the body. CL/F was the clearance, i.e., the number of apparent volume of distribution of the drug removed from the body per unit time. AUMC was the first order moment of the drug-time curve, i.e. the area under the curse of the product of time and blood concentration versus time. MRTlast was the mean retention time, i.e., the average of the residence time of drug molecules in the body.

[3] = In vivo pharmacokinetics, lung tissue homogenate (UPLC-MS/MS); parameters: species or system rat; conditions: for CL/F (clearance) / Cmax / Tmax / half-life / MRT last: BA in rat lung tissue; for concentration at 2 min / concentration at 4 min / concentration at 10 min / concentration at 15 min / concentration at 30 min / concentration at 60 min / concentration at 120 min / concentration at 240 min / concentration at 360 min / Cmax / Tmax / half-life / MRT last: male, Sprague-Dawley (SD); for concentration at 2 min / concentration at 4 min / concentration at 10 min / concentration at 15 min / concentration at 30 min / concentration at 60 min / concentration at 120 min / concentration at 240 min / concentration at 360 min: rat lung tissue homogenate, read-out: Drug concentration of BA in lung tissue; for Cmax / Tmax / half-life / MRT last: lung tissue (homogenate supernatant); for half-life: read-out: HLz (biological half-life) (converted); for MRT last: read-out: MRTlast (mean retention time)
Method: as §1, §2
The lung tissues were added to saline in a weight to volume ratio of 1:4 (g:mL). A homogenate was obtained by beating, dispersing and evenly grinding with a homogenizer under an ice water bath, and centrifuged at 6500 r/min for 20 min to obtain the supernatant of the lung tissue homogenate.
as §3, §4, §5

[4] = male, SD, inhaled or intranasal, BA in rat plasma, pulmonary administration group, BA/AH-DPI 9 mg/kg
[5] = male, SD, inhaled, rat plasma, pulmonary administration BA/AH-DPI 9 mg/kg
[6] = male, SD, BA in rat plasma, tail intravenous injection group, 9 mg/kg
[7] = male, SD, rat plasma, tail intravenous injection BA/AH-DPI saline solution 9 mg/kg
[8] = tail intravenous injection group, 9 mg/kg
[9] = inhaled, pulmonary administration BA/AH-DPI 9 mg/kg
[10] = inhaled or intranasal, pulmonary administration group, BA/AH-DPI 9 mg/kg
[11] = tail intravenous injection BA/AH-DPI saline solution 9 mg/kg

O=C(O)[C@H]1O[C@@H](Oc2cc3oc(-c4ccccc4)cc(=O)c3c(O)c2O)[C@H](O)[C@@H](O)[C@@H]1O [BA, baicalin]
D10 [1]: 0.88 μm | D50 [1]: 5.18 μm | D90 [1]: 12.61 μm | SMD (Sauter mean diameter) [1]: 2.23 μm | VMD (Volume median diameter) [1]: 6.05 μm | <3 μm ([1]; fraction of particles): 31.81% | <5 μm ([1]; fraction of particles): 48.66% | CL/F (clearance) ([2]; BA in rat plasma, tail intravenous injection group, 9 mg/kg): 98.4805 ± 62.0535 mL/min/kg | Cmax [2, 4]: 2560 ± 351 ng/mL | Tmax [2, 4]: 9 ± 4.2 min | CL/F ([2]; male, SD, inhaled or intranasal, BA in rat plasma, pulmonary administration group, BA/AH-DPI 9 mg/kg, read-out: CL/F (clearance) (converted)): 121 mL/min/kg | half-life [2, 4]: 121 ± 38.4 min | MRT last [2, 4]: 45 ± 5.52 min | Vd/F ([2]; male, SD, inhaled or intranasal, BA in rat plasma, pulmonary administration group, BA/AH-DPI 9 mg/kg, read-out: Vz/F (apparent volume of distribution)): 20.9 ± 6.57 L/kg | bioavailability ([2]; male, SD, inhaled, rat plasma, pulmonary administration of BA/AH-DPI vs tail intravenous injection, 9 mg/kg, read-out: Absolute bioavailability): 60.7% | concentration at 2 min [2, 5]: 690 ± 438 ng/mL | concentration at 10 min [2, 5]: 2320 ± 421 ng/mL | concentration at 15 min [2, 5]: 1470 ± 588 ng/mL | concentration at 30 min [2, 5]: 628 ± 95.9 ng/mL | concentration at 60 min [2, 5]: 289 ± 110 ng/mL | concentration at 120 min [2, 5]: 57.2 ± 14.2 ng/mL | concentration at 240 min [2, 5]: 27.4 ± 10.9 ng/mL | concentration at 360 min [2, 5]: 13.4 ± 3.68 ng/mL | Cmax [2, 6]: 11800 ± 6050 ng/mL | Tmax [2, 6]: 2.28 ± 0.6 min | half-life [2, 6]: 48.6 ± 36 min | MRT last [2, 6]: 14.4 ± 9.6 min | concentration at 2 min [2, 7]: 11700 ± 6170 ng/mL | concentration at 10 min [2, 7]: 933 ± 401 ng/mL | concentration at 15 min [2, 7]: 693 ± 284 ng/mL | concentration at 30 min [2, 7]: 338 ± 70.3 ng/mL | concentration at 60 min [2, 7]: 77 ± 46.1 ng/mL | concentration at 120 min [2, 7]: 53.7 ± 54.2 ng/mL | concentration at 240 min [2, 7]: 8.68 ± 8.46 ng/mL | concentration at 360 min [2, 7]: 2.64 ± 5.27 ng/mL | concentration at 4 min ([2]; male, inhaled, rat plasma, pulmonary administration BA/AH-DPI 9 mg/kg): 1740 ± 962 ng/mL | concentration at 4 min ([2]; male, rat plasma, tail intravenous injection BA/AH-DPI saline solution 9 mg/kg): 3060 ± 861 ng/mL | Time of maximum blood concentration in plasma ([2]; rat, pulmonary administration of BA/AH-DPI 9 mg/kg): around 9 min | CL/F (clearance) ([3]; pulmonary administration group, BA/AH-DPI 9 mg/kg): 800.14 ± 131.95 g/h/kg | CL/F (clearance) [3, 8]: 29086.90 ± 13876.33 g/h/kg | concentration at 2 min [3, 9]: 6440 ± 1200 ng/mL | concentration at 4 min [3, 9]: 4960 ± 1130 ng/mL | concentration at 10 min [3, 9]: 3190 ± 524 ng/mL | concentration at 15 min [3, 9]: 1820 ± 346 ng/mL | concentration at 30 min [3, 9]: 1420 ± 469 ng/mL | concentration at 60 min [3, 9]: 705 ± 160 ng/mL | concentration at 120 min [3, 9]: 235 ± 76.2 ng/mL | concentration at 240 min [3, 9]: 92.2 ± 25.4 ng/mL | concentration at 360 min [3, 9]: 43.1 ± 16.9 ng/mL | Cmax [3, 10]: 26000 ± 4490 ng/g | Tmax [3, 10]: 2.64 ± 1.08 min | half-life [3, 10]: 84 ± 24 min | MRT last [3, 10]: 0.95 ± 0.087 h | Cmax [3, 8]: 341 ± 112 ng/g | Tmax [3, 8]: 1.98 min | half-life [3, 8]: 101 ± 44.4 min | MRT last [3, 8]: 1.52 ± 0.6 h | concentration at 2 min [3, 11]: 85.3 ± 27.9 ng/mL | concentration at 4 min [3, 11]: 42 ± 7.67 ng/mL | concentration at 10 min [3, 11]: 45.1 ± 13.6 ng/mL | concentration at 15 min [3, 11]: 45.8 ± 18.7 ng/mL | concentration at 30 min [3, 11]: 39.2 ± 22 ng/mL | concentration at 60 min [3, 11]: 16.3 ± 19.5 ng/mL | concentration at 120 min [3, 11]: 12.9 ± 10.5 ng/mL | concentration at 240 min [3, 11]: 8.37 ± 6.37 ng/mL | concentration at 360 min [3, 11]: 2.71 ± 3.37 ng/mL
